The results in this text go back to ChEMBL document CHEMBL1201862, “PubChem BioAssay data set” (2004).

Calls of active or inactive are those of the source.

A short description of assay [1]: non-specific cell cytotoxicity, dose response, cytotoxicity control for PAX8 inhibitor project, plate reader, dry powder samples (AID 743021). In kind it is functional, cell-based.
In another assay the target is Paired box protein Pax-8 (Homo sapiens, UniProt Q06710). Kind of assay: inhibitors of PAX8-driven TPO luciferase reporter, dose response, RMG-I cells, cherry-pick (AID 687027).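 Also: luciferase reporter driven by Pax8 target thyroperoxidase promoter measured by SteadyGlo luminescence.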 The format is functional, cell-based. A general note: In a reporter assay the amount or activity of a reporter protein is the signal.
The target in assay [2] is Matrix metalloproteinase-14 (Homo sapiens, UniProt P50281). Kind of assay: SAR confirmation of uHTS hits for a small molecule inhibitors of MT1-MMP activation in a fluorescence assay. The format is functional.
A short description of assay [3]: HEK293T cytotoxicity, dose response, cytotoxicity control for miR-122 modulator project, cell-based, activator set, cherry-pick (AID 720690).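 Also: HEK293T human cells scored for general mammalian cytotoxicity.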 The format is functional.
Assay [4] in a line: miR-122 activators in hepatoma reporter cells, dose response, cell-based, Huh7 psiCHECK-miR122, Renilla luciferase, cherry-picked (AID 651956).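 Also: huh7 hepatoma cells stably carrying a psiCHECK-2 miR-122 sensor plasmid; renilla luciferase signal reporting endogenous miR-122 activity after 48 h compound exposure.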 The format is functional.
Assay [5] is described as follows: inhibitors of TNFa-stimulated NF-kB luciferase reporter, dose response, selectivity assay for EBV LMP1 NF-kB inhibitor project, HEK293 LMP1 reporter cells, dry powder, set 2 (AID 624369). The format is functional.
Assay [6] is described as follows: Late stage assay provider results from the probe development effort to identify selective inhibitors of heat shock protein 90 (HSP90): Absorbance-based cell proliferation assay in SKBR3 cells. The format is functional. The note with it: SK-BR-3.
Assay [7] is described as follows: Late stage assay provider results from the probe development effort to identify selective inhibitors of heat shock protein 90 (HSP90): Absorbance-based cell proliferation assay in MCF7 cells. In kind it is functional.
In a further assay the target is Fatty acid synthase (Homo sapiens, UniProt P49327). Kind of assay: FAS thioesterase domain inhibitors, SAR follow-up, biochemical, endpoint fluorescence intensity, powder samples (AID 652164). In kind it is functional.
The nature of assay [8]: A549 cell cytotoxicity, dose response, cytotoxicity control, plate reader, cherry-pick, antagonist series (AID 743412). The format is functional, cell-based.
Assay [9] in a line: HEK293 cell cytotoxicity, dose response, cytotoxicity control, plate reader, cherry-picked samples (AID 743446). The format is functional, cell-based.
Another assay concerns the target Beta Lactamase (Pseudomonas aeruginosa, UniProt Q932Y6). Kind of assay: beta-lactamase reporter inhibitor potency, dose response, artefact control for NOD2-RIPK2 interaction inhibitor project, BLA reporter cells, FRET fluorescence (AID 651552). In kind it is functional, cell-based.
Assay [10] can be described thus: Fluorescence-based cell-based high throughput dose response assay for inhibitors of the interaction of nucleotide-binding oligomerization domain containing 2 (NOD2) and the receptor-interacting serine-threonine kinase 2 (RIPK2). The format is functional. The note with it: Homo sapiens.
Assay [11] is described as follows: Shn3 3'UTR reporter inhibitors, dose response, cell-based, Clone20 osteoblasts, firefly luciferase, cherry-picked (AID 624132).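 Also: firefly luciferase luminescence from reporter carrying the Shn3 3'UTR in osteoblasts.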 The format is functional.
Assay [12] is described as follows: HepG2 cell cytotoxicity, dose response, cytotoxicity control for Shn3 inhibitor project, CellTiter-Glo, cherry-picked (AID 624134). In kind it is functional, cell-based.
Another assay concerns the target T1, Protein skinhead-1 (Caenorhabditis elegans, UniProt P34707).
T1 sequence (P34707 whole entry): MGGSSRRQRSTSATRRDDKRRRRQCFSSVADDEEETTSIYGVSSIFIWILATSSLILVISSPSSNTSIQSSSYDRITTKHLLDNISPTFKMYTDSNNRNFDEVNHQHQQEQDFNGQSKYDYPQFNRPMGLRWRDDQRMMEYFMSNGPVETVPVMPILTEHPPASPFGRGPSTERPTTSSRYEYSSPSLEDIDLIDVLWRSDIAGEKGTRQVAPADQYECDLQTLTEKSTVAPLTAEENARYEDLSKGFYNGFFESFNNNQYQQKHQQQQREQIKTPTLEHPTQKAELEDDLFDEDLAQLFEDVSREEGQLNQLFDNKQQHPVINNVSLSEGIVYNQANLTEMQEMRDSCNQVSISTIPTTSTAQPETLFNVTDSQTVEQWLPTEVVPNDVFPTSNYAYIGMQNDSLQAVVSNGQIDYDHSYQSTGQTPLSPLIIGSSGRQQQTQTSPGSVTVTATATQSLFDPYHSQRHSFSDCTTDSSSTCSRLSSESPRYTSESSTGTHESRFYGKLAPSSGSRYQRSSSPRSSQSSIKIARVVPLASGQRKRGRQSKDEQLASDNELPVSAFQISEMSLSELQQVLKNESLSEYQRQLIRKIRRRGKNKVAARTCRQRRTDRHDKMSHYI
The format is functional.

A short description of assay [13]: LGR2 antagonists, dose response, cell-based, HEK293, CRE-luciferase reporter, cherry pick, set 2 (AID 743343).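 Also: transfected cells were stimulated with diluted bursicon conditioned medium after compound addition.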 In kind it is functional.
Assay [14] in a line: control 3'UTR Renilla luciferase suppression, dose response, counter-screen for Shn3 inhibitor project, cell-based, Clone20-Shn3RL, cherry-picked (AID 624133). The format is functional.
Assay [15] can be described thus: MC4R antagonists, dose response, counter-screen for LGR2 antagonist project, cell-based, plate reader, cherry pick (AID 743444).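 Also: transfected HEK 293 cells stimulated with alpha-MSH peptide; potency of inhibitors of the alpha-MSH evoked signal.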 The format is functional. On the technique in general: The purpose of a counterscreen is to sort out artefacts and off-target activity.
Assay [16] is described as follows: HepG2 cell cytotoxicity, dose response, cytotoxicity control, plate reader, cherry-pick, antagonist series (AID 743416). The format is functional, cell-based.
In a further assay the test system is A549. Kind of assay: A549 cell toxicity, dose response, cytotoxicity control, plate reader, cherry-pick samples (AID 687028). The format is functional, cell-based. The note with it: Homo sapiens.
For the next assay, the system named is Vero. Kind of assay: Vero cell toxicity, dose response, cytotoxicity control, plate reader, cherry-pick samples (AID 687020). In kind it is functional, cell-based. The note with it: Chlorocebus sabaeus.
The target in the next assay is Galanin receptor type 3 (Homo sapiens, UniProt O60755). Kind of assay: Fluorescence-based cell-based primary high throughput dose response assay to identify antagonists of the Galanin Receptor 3 (GalR3). The format is functional.
A further assay in a line: cells. In kind it is functional, cell-based. The note with it: HEK-CNG.

As a reminder, the AC50 is the concentration at which the activity in the assay is half-maximal. As usually defined, the IC50 is the point on the concentration scale where inhibition reaches its midpoint. By EC50 is commonly meant the concentration giving half of the maximal effect.
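For EC50 in this document: target is galanin receptor GalR3 read with a cAMP biosensor in HEK293 cells.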

Chain of Paired box protein Pax-8 (Q06710 whole entry): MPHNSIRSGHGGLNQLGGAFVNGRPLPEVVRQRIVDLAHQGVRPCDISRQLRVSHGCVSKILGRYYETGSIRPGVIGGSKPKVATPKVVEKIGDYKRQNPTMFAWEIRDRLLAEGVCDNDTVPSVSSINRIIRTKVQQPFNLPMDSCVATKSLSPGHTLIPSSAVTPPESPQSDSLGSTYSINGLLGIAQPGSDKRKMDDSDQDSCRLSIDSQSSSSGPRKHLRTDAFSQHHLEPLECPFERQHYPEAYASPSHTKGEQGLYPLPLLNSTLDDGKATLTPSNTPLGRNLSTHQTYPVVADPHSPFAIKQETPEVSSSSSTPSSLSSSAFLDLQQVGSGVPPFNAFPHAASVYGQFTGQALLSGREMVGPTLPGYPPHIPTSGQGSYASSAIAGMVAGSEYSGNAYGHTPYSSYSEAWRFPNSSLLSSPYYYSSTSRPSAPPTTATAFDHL
Chain of Galanin receptor type 3 (O60755 whole entry): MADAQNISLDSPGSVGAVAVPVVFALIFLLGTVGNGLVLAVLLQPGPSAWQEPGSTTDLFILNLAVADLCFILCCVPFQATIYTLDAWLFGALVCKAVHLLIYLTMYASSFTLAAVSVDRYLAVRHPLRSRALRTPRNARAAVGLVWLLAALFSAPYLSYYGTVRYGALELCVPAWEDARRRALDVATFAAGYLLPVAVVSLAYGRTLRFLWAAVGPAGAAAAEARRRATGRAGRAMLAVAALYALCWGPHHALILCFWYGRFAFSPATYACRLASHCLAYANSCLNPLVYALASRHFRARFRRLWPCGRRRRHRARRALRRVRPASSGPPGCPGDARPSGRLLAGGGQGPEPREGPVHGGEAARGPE
Chain of Fatty acid synthase (P49327 whole entry, the tested form may be a part): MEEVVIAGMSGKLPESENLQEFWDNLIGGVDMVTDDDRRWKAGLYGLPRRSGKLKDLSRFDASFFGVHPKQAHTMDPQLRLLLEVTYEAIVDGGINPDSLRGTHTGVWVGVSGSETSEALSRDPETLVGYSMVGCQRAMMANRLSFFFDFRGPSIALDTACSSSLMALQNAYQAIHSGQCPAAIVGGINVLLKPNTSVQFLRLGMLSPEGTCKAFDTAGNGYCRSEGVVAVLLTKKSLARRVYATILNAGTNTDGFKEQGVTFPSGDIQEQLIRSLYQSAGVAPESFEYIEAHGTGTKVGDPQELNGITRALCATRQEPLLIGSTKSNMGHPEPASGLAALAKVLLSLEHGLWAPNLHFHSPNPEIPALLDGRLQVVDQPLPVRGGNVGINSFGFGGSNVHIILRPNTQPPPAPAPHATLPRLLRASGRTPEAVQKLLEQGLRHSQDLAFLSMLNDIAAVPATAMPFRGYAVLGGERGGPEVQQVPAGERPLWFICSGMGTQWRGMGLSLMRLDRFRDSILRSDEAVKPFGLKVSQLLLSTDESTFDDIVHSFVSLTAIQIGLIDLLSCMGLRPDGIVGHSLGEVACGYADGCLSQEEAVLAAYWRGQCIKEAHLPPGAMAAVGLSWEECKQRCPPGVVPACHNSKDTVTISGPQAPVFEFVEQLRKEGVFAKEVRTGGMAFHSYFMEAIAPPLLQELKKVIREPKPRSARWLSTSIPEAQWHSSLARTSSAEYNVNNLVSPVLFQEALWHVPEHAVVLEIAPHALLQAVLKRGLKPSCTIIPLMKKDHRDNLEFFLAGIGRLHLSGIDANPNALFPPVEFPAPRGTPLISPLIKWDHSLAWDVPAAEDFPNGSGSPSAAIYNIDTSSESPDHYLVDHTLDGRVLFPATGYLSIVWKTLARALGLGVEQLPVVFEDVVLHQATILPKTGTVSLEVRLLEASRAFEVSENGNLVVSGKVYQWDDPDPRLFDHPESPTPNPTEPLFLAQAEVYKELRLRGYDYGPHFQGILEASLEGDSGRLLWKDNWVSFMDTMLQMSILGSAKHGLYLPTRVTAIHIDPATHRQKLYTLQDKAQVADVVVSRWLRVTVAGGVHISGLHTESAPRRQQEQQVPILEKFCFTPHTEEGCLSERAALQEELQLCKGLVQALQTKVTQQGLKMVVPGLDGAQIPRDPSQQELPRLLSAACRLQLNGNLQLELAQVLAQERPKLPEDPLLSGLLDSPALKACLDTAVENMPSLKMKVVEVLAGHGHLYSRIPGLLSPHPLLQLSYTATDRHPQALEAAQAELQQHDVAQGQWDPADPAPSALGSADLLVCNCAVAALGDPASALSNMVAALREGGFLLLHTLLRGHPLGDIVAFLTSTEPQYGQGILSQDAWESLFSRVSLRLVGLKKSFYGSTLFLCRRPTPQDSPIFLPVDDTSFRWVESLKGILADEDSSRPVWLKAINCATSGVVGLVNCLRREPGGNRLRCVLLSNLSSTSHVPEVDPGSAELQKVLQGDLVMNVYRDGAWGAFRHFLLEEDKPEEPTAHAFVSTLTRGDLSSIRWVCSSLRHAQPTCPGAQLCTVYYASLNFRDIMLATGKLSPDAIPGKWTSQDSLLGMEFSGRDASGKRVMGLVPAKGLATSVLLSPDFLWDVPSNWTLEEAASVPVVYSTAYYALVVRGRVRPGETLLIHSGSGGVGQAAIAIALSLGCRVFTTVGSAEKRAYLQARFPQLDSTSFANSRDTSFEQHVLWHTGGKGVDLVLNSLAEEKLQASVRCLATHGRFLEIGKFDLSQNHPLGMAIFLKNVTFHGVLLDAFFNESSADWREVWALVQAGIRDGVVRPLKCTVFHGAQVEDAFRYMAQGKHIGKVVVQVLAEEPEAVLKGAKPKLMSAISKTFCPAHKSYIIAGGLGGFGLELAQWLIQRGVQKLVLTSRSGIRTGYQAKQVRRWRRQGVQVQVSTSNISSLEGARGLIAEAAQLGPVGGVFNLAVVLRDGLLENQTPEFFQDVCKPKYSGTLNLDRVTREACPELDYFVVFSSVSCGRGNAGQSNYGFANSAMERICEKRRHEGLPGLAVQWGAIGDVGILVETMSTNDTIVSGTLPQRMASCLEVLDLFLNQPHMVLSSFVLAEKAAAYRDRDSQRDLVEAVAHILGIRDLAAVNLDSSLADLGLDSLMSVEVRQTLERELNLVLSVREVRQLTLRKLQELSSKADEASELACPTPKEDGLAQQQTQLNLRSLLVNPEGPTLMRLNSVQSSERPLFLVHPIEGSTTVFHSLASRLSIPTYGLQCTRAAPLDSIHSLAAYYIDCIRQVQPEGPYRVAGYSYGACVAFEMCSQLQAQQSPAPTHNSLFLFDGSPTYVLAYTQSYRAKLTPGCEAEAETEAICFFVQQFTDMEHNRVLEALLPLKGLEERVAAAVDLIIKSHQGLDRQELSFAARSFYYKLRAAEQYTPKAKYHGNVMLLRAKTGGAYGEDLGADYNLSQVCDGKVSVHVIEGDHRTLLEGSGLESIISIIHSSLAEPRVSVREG
Chain of Beta Lactamase (Q932Y6 whole entry, the tested form may be a part): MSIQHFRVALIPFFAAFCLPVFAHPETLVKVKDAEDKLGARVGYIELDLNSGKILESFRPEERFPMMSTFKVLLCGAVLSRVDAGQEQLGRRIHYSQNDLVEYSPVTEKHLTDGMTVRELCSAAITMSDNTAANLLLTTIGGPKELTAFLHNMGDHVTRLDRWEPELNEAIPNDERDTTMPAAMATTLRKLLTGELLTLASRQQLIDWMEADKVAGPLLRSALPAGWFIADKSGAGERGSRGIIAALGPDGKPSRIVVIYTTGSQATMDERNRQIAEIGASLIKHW

Regarding `COC(=O)C1C=CC(OC2OC(COC(C)=O)C(OC(C)=O)C(OC(C)=O)C2OC(C)=O)n2c(=O)n(-c3ccccc3)c(=O)n21` (centres undefined), the half-maximal activity concentration (AC50) in [1] is 40 µM (active); at Paired box protein Pax-8, 3.41 µM (active).

Consider `CN1/C(=C/C=C/c2n(C)c3cc([N+](=O)[O-])c([N+](=O)[O-])cc3[n+]2C)C(C)(C)c2ccccc21`, for which, in assay [2], the IC50 is 6.88 µM (active).

Take `CO[C@@H]1CN(C)C(=O)c2ccc(NC(=O)c3ccc(Oc4ccccc4)cc3)cc2OC[C@H](C)NC[C@@H]1C`: the results for the concentration at half-maximal activity (AC50) in assay [3] and in assay [4] were 23.6 µM (active) and 11.3 µM (active), respectively.

`O=C(C[C@@H]1C[C@H]2c3cc(NC(=O)c4ccc5c(c4)OCO5)ccc3O[C@H]2[C@H](CO)O1)NC1CCCCC1` registered an AbsAC35 in [5] of 166.85 µM.

For `O=C(Nc1ccccc1I)c1coc(=O)c(Br)c1`, the IC50 in [6] is 45.3 µM (inactive); in [7] it was 29.4 µM (inactive).

For the compound `CCC(=O)Nc1nc(-c2ccc(S(=O)(=O)N3CCC(C)CC3)cc2)cs1`, at Fatty acid synthase, the IC50 was > 80 µM (inactive).

As for `O=C1NC2C(=CC(O)C(O)C2O)c2cc3c(c(O)c21)OCO3` (centres undefined), the AC50 in assay [8] was 0.17 µM (active); in [9], 0.167 µM (active); in [11], < 0.26 µM (active); in [12], 59 µM (active); in [13], 0.138 µM (active); in assay [14], 0.431 µM (active). The AC50 is 0.161 µM (active) in [15] and 0.218 µM (active) in assay [16]. Further, the values for the IC50 (at Beta Lactamase; in [10]; at Protein skinhead-1) were 49.7 µM (inactive), 49.7 µM (inactive) and 24 µM (active), respectively.

Turning to `Nc1nc2ccccc2n1Cc1ccc(Cl)c(Cl)c1`, the AC50 in the assay with A549 was 2.82 µM (active); in the assay on Vero, 1.28 µM (active).

`CCNCC(O)c1cccc(O)c1` (centres undefined) [ETILEFRINE]: the IC50 at Galanin receptor type 3 was 1.33 µM (active). The EC50 in the assay “cells” was > 30 µM (inactive).
